# Measurements: patent US7888394B2, “Synthesis, polymorphs, and pharmaceutical formulation of FAAH inhibitors” (N.V. Organon, priority 2006, dated 2011)
# Assays:
# [1] = Particle size determination of KDS-4103 polymorphs (Malvern Mastersizer 2000 Hydro S, dispersed in hexane); type: physicochemical; conditions: 1 minute sonication (47 kHz), 10,000 sweeps
# Experimental: “Effective particle size,” as used herein refers to and is determined on the basis of the volume weight average particle size as measured by conventional particle size measuring techniques well known to those skilled in the art. Such techniques include, for example, sedimentation field flow fractionation, photon correlation spectroscopy, light scattering, laser diffraction and disc centrifugation. For the purposes of the compositions, formulations and methods described herein, effective particle size is the volume mass average particle size as determined using light scattering methods, e.g. Horiba LA-950. For example, an effective particle size of 5.9 μm means that 50% of the particles by weight are less than 5.9 μm and 50% of the particles by weight are greater than 5.9 μm.
# [2] = Oral bioavailability determination of KDS-4103 polymorphs: plasma concentrations after oral administration of suspensions to rats; type: in vivo; conditions: oral gavage, 100 mg/mL suspension at 1 ml/kg
# [3] = as above; type: in vivo; conditions: for [KDS-4103] plasma concentration: oral gavage, 100 mg/mL suspension at 1 ml/kg
# Experimental: Animals were sacrificed at 30, 60 and 90 minutes post-dose in each group. Collection of K3EDTA was acheived via cardiac puncture.
# [4] = tested on: fatty acid amide hydrolase (FAAH); conditions: cited from earlier work
Compound,average effective average particle size ([1]; listed as KDS-4103 from acetonitrile),"concentration at 0 min ([2]; rat, plasma, po, 100 mg/kg, [KDS-4103] plasma concentration) [ng/mL]",[KDS-4103] plasma concentration ([3]; time 30 minutes post-dose) [ng/mL],[KDS-4103] plasma concentration ([3]; time 60 minutes post-dose) [ng/mL],[KDS-4103] plasma concentration ([3]; time 90 minutes post-dose) [ng/mL],levels of the compound in circulation compared to the polymorph obtained from EtOH ([3]; oral suspension),"bioavailability of the suspension ([3]; oral suspension, compared to polymorph from ethanol)",average effective average particle size ([1]; listed as KDS-4103 from ethanol),[KDS-4103] plasma concentration ([2]; time 0 minutes) [ng/mL],inhibition of FAAH activity [4]
NC(=O)c1cccc(-c2cccc(OC(=O)NC3CCCCC3)c2)c1 [KDS-4103 polymorph from acetonitrile],about 5.9 μm,0,196.06,58.95,105.36,increased levels of the compound in circulation,increased bioavailability,,,
NC(=O)c1cccc(-c2cccc(OC(=O)NC3CCCCC3)c2)c1 [KDS-4103 polymorph from ethanol],,,9.62,12.60,10.74,,,about 13.9 μm,0.00,
NC(=O)c1cccc(-c2cccc(OC(=O)NC3CCCCC3)c2)c1 [KDS-4103],,,,,,,,,,potent and selective inhibitor of FAAH activity
